The term EC50 denotes the concentration needed to bring the measured effect to its halfway point.

This note sets out measurements from US11603373B2, “TDO2 and IDO1 inhibitors” (Genentech, Inc., priority 2017, dated 2023).

The target in experiment [1] is T1, TDO2 (SW48 cells, high TDO expressing cells) (Homo sapiens, UniProt P48775).
T1 construct: SW48 cells (high TDO expressing cells); endogenous in cells; host or cells: SW48 cells
Put plainly: NFK GreenScreen cell assay, inhibition of TDO in SW48 cells. Type of experiment: cell-based. Particulars: read-out: TDO2 Cell Fluor EC50. The source says:
(§1) Cells are counted on a Vi-Cell (Beckman Coulter). […] The final DMSO concentration is 0.5%.

Experiment [2] deals with T2, IDO1 (A172+IFNg cells, high IDO expressing cells) (Homo sapiens, UniProt P14902).
T2 construct: A172+IFNg cells (high IDO expressing cells); endogenous in cells; host or cells: A172 cells induced with 100 ng/ml IFNγ
In words: NFK GreenScreen cell assay, inhibition of IDO in A172+IFNg cells. The class given is cell-based. Particulars: read-out: IDO cell Fluor EC50.
Source text: as §1

T2 sequence (P14902 whole entry): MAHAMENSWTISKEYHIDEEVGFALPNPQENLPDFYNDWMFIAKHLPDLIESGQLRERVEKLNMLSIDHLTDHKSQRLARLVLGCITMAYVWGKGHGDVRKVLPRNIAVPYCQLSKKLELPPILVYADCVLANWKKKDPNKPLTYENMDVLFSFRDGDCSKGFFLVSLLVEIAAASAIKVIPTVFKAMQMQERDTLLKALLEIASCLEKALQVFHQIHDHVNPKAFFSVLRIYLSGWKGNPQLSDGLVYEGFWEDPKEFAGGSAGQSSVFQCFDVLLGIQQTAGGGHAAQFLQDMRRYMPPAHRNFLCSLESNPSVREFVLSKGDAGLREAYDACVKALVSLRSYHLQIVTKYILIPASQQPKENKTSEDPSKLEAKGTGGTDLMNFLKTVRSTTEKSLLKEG
T1 sequence (P48775 whole entry): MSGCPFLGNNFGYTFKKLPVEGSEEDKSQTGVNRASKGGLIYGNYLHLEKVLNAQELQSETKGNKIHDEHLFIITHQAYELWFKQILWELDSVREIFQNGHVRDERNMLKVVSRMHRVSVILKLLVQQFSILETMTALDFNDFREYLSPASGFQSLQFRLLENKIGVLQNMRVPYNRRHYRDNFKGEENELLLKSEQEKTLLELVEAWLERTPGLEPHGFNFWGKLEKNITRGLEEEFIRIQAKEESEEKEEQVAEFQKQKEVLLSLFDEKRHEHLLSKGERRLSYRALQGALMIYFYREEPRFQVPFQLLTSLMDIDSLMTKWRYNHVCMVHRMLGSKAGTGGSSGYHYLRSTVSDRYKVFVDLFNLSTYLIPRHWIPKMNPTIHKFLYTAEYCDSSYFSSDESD

Regarding `O=C(CCc1cccnc1)N1CCC2(CC1)CC(C1c3ccccc3-c3cncn31)C2O` (centres unmarked) [compound 33, 1-[3-hydroxy-2-(5H-imidazo[1,5-b]isoindol-5-yl)-7-azaspiro[3.5]nonan-7-yl]-3-(3-pyridyl)propan-1-one], the EC50 in experiment [1] came to 840 nM; in experiment [2] it was 490 nM.

Consider `CC(=O)N(C)c1ccc(S(=O)(=O)N2CCC3(CC2)C[C@@H]([C@H]2c4ccccc4-c4cncn42)[C@H]3O)cc1` [compound 34, N-[4-[[3-hydroxy-2-(5H-imidazo[1,5-b]isoindol-5-yl)-7-azaspiro[3.5]nonan-7-yl]sulfonyl]phenyl]-N-methyl-acetamide], for which the EC50 was 480 nM in experiment [1] and 32 nM in experiment [2].

As to `CC(=O)N1CCC(S(=O)(=O)N2CCC3(CC2)CC(C2c4ccccc4-c4cncn42)C3O)CC1` (centres unmarked) [compound 35, 1-[4-[[3-hydroxy-2-(5H-imidazo[1,5-b]isoindol-5-yl)-7-azaspiro[3.5]nonan-7-yl]sulfonyl]-1-piperidyl]ethanone], the EC50 in experiment [1] worked out at 460 nM; in experiment [2], 140 nM.

Turning to `O=S(=O)(C1CCC1)N1CCC2(CC1)C[C@@H]([C@H]1c3ccccc3-c3cncn31)[C@H]2O` [compound 36, 7-cyclobutylsulfonyl-2-(5H-imidazo[1,5-b]isoindol-5-yl)-7-azaspiro[3.5]nonan-3-ol], the EC50 was 150 nM in experiment [1] and 35 nM in experiment [2].

Regarding `CN1C(=O)Cc2cc(S(=O)(=O)N3CCC4(CC3)CC(C3c5ccccc5-c5cncn53)C4O)ccc21` (centres unmarked) [compound 37, 5-[[3-hydroxy-2-(5H-imidazo[1,5-b]isoindol-5-yl)-7-azaspiro[3.5]nonan-7-yl]sulfonyl]-1-methyl-indolin-2-one], the results for the EC50 in experiment [1] and in experiment [2] were 1100 nM and 230 nM, respectively.

Turning to `O=C(c1cnn2c1OCCC2)N1CCC2(CC1)CC(C1c3ccccc3-c3cncn31)C2O` (centres unmarked) [compound 38, 6,7-dihydro-5H-pyrazolo[5,1-b][1,3]oxazin-3-yl-[3-hydroxy-2-(5H-imidazo[1,5-b]isoindol-5-yl)-7-azaspiro[3.5]nonan-7-yl]methanone], the values for the EC50 in experiment [1] and in experiment [2] were 2300 nM and 630 nM, respectively.

On to `O=C(CN1CCCCC1=O)N1CCC2(CC1)CC(C1c3ccccc3-c3cncn31)C2O` (centres unmarked) [compound 39, 1-[2-[3-hydroxy-2-(5H-imidazo[1,5-b]isoindol-5-yl)-7-azaspiro[3.5]nonan-7-yl]-2-oxo-ethyl]piperidin-2-one], for which the EC50 in experiment [1] was determined as 3900 nM; in experiment [2], 3300 nM.

Take `CN1CCC(C(=O)N2CCC3(CC2)CC(C2c4ccccc4-c4cncn42)C3O)CC1=O` (centres unmarked) [compound 40, 4-[3-hydroxy-2-(5H-imidazo[1,5-b]isoindol-5-yl)-7-azaspiro[3.5]nonane-7-carbonyl]-1-methyl-piperidin-2-one]: the EC50 in experiment [1] was determined as 9200 nM; in experiment [2], 7000 nM.

Take `CC(C(=O)N1CCC2(CC1)C[C@@H]([C@H]1c3ccccc3-c3cncn31)[C@H]2O)n1cncn1` (some centres unmarked) [compound 41, 1-[3-hydroxy-2-(5H-imidazo[1,5-b]isoindol-5-yl)-7-azaspiro[3.5]nonan-7-yl]-2-(1,2,4-triazol-1-yl)propan-1-one]: the half-maximal effective concentration (EC50) in experiment [1] was 3400 nM; in experiment [2] it was 1500 nM.

`CC(NC=O)C(=O)N1CCC2(CC1)CC(C1c3ccccc3-c3cncn31)C2O` (centres unmarked) [compound 42, N-[2-[3-hydroxy-2-(5H-imidazo[1,5-b]isoindol-5-yl)-7-azaspiro[3.5]nonan-7-yl]-1-methyl-2-oxo-ethyl]formamide]: the EC50 in experiment [1] was 4100 nM; in experiment [2], 1100 nM.

As to `O=C(C1CC1)N1CCC2(CC1)CC(C1c3ccccc3-c3cncn31)C2O` (centres unmarked) [compound 43, cyclopropyl-[3-hydroxy-2-(5H-imidazo[1,5-b]isoindol-5-yl)-7-azaspiro[3.5]nonan-7-yl]methanone], the EC50 in experiment [1] worked out at 850 nM; in experiment [2], 360 nM.

Turning to `Cn1ccc(S(=O)(=O)N2CCC3(CC2)CC(C2c4ccccc4-c4cncn42)C3O)n1` (centres unmarked) [compound 44, 2-(5H-imidazo[1,5-b]isoindol-5-yl)-7-(1-methylpyrazol-3-yl)sulfonyl-7-azaspiro[3.5]nonan-3-ol], the EC50 worked out at 280 nM in experiment [1] and 82 nM in experiment [2].

For the compound `O=C(C1CCOCC1)N1CCC2(CC1)C[C@@H]([C@H]1c3ccccc3-c3cncn31)[C@H]2O` [compound 45, [3-hydroxy-2-(5H-imidazo[1,5-b]isoindol-5-yl)-7-azaspiro[3.5]nonan-7-yl]-tetrahydropyran-4-yl-methanone], the EC50 in experiment [1] turned out to be 2100 nM; in experiment [2], 2400 nM.

As to `O=C(C1CCOC1)N1CCC2(CC1)C[C@@H]([C@H]1c3ccccc3-c3cncn31)[C@H]2O` (some centres unmarked) [compound 46, [3-hydroxy-2-(5H-imidazo[1,5-b]isoindol-5-yl)-7-azaspiro[3.5]nonan-7-yl]-tetrahydrofuran-3-yl-methanone], the EC50 in experiment [1] turned out to be 2400 nM; in experiment [2], 2000 nM.

Regarding `COCCC(=O)N1CCC2(CC1)C[C@@H]([C@H]1c3ccccc3-c3cncn31)[C@H]2O` [compound 47, 1-[3-hydroxy-2-(5H-imidazo[1,5-b]isoindol-5-yl)-7-azaspiro[3.5]nonan-7-yl]-3-methoxy-propan-1-one], the EC50 in experiment [1] and in experiment [2] was 850 nM in each case.

On to `O=C(C1CCC1)N1CCC2(CC1)C[C@@H]([C@H]1c3ccccc3-c3cncn31)[C@H]2O` [compound 48, cyclobutyl-[3-hydroxy-2-(5H-imidazo[1,5-b]isoindol-5-yl)-7-azaspiro[3.5]nonan-7-yl]methanone], for which the EC50 in experiment [1] is 730 nM; in experiment [2], 350 nM.

For `CCC(=O)N1CCC2(CC1)CC(C1c3ccccc3-c3cncn31)C2O` (centres unmarked) [compound 49, 1-[3-hydroxy-2-(5H-imidazo[1,5-b]isoindol-5-yl)-7-azaspiro[3.5]nonan-7-yl]propan-1-one], the EC50 in experiment [1] came out at 530 nM; in experiment [2], 560 nM.

For `CN(C)C(=O)CCC(=O)N1CCC2(CC1)CC(C1c3ccccc3-c3cncn31)C2O` (centres unmarked) [compound 50, 4-[3-hydroxy-2-(5H-imidazo[1,5-b]isoindol-5-yl)-7-azaspiro[3.5]nonan-7-yl]-N,N-dimethyl-4-oxo-butanamide], the EC50 in experiment [1] was 1300 nM; in experiment [2], 1500 nM.

On to `O=C(CC1CCOCC1)N1CCC2(CC1)CC(C1c3ccccc3-c3cncn31)C2O` (centres unmarked) [compound 51, 1-[3-hydroxy-2-(5H-imidazo[1,5-b]isoindol-5-yl)-7-azaspiro[3.5]nonan-7-yl]-2-tetrahydropyran-4-yl-ethanone], for which the EC50 in experiment [1] is 220 nM; in experiment [2] it was 390 nM.

Turning to `O=C(CN1CCCC1=O)N1CCC2(CC1)C[C@@H]([C@H]1c3ccccc3-c3cncn31)[C@H]2O` [compound 52, 1-[2-[3-hydroxy-2-(5H-imidazo[1,5-b]isoindol-5-yl)-7-azaspiro[3.5]nonan-7-yl]-2-oxo-ethyl]pyrrolidin-2-one], the concentration for a half-maximal effect (EC50) in experiment [1] came to 3700 nM; in experiment [2], 3900 nM.

In the case of `CN1CC(C(=O)N2CCC3(CC2)CC(C2c4ccccc4-c4cncn42)C3O)CC1=O` (centres unmarked) [compound 53, 4-[3-hydroxy-2-(5H-imidazo[1,5-b]isoindol-5-yl)-7-azaspiro[3.5]nonane-7-carbonyl]-1-methyl-pyrrolidin-2-one], the results for the EC50 in experiment [1] and in experiment [2] were 9900 nM and 6700 nM, respectively.

`Cc1cc(CC(=O)N2CCC3(CC2)C[C@@H]([C@H]2c4ccccc4-c4cncn42)[C@H]3O)no1` [compound 54, 1-[3-hydroxy-2-(5H-imidazo[1,5-b]isoindol-5-yl)-7-azaspiro[3.5]nonan-7-yl]-2-(5-methylisoxazol-3-yl)ethanone]: the figures for the concentration giving a half-maximal response (EC50) in experiment [1] and in experiment [2] were 370 nM and 240 nM, respectively.

`Cn1cc(CCC(=O)N2CCC3(CC2)C[C@@H]([C@H]2c4ccccc4-c4cncn42)[C@H]3O)cn1` [compound 55, 1-[3-hydroxy-2-(5H-imidazo[1,5-b]isoindol-5-yl)-7-azaspiro[3.5]nonan-7-yl]-3-(1-methylpyrazol-4-yl)propan-1-one]: the EC50 in experiment [1] was determined as 810 nM; in experiment [2], 510 nM.

As for `CC(=O)N1CCC2(CC1)C[C@@H]([C@H]1c3ccccc3-c3cncn31)[C@H]2O` [compound 56, 1-[3-hydroxy-2-(5H-imidazo[1,5-b]isoindol-5-yl)-7-azaspiro[3.5]nonan-7-yl]ethanone], the EC50 in experiment [1] was determined as 790 nM; in experiment [2] it was 660 nM.

Turning to `O=C(OCC(F)F)N1CCC2(CC1)C[C@@H]([C@H]1c3ccccc3-c3cncn31)[C@H]2O` [compound 57, 2,2-difluoroethyl (2S,3R)-3-hydroxy-2-[(5S)-5H-imidazo[1,5-b]isoindol-5-yl]-7-azaspiro[3.5]nonane-7-carboxylate], the EC50 was determined as 260 nM in experiment [1] and 87 nM in experiment [2].

`O=C(NCC(F)F)N1CCC2(CC1)C[C@@H]([C@H]1c3ccccc3-c3cncn31)[C@H]2O` [compound 58, N-(2,2-difluoroethyl)-3-hydroxy-2-(5H-imidazo[1,5-b]isoindol-5-yl)-7-azaspiro[3.5]nonane-7-carboxamide]: the EC50 in experiment [1] was 340 nM; in experiment [2] it was 350 nM.

On to `N#CC1(C(=O)N2CCC3(CC2)C[C@@H]([C@H]2c4ccccc4-c4cncn42)[C@H]3O)CC1` [compound 61, 1-[3-hydroxy-2-(5H-imidazo[1,5-b]isoindol-5-yl)-7-azaspiro[3.5]nonan-7-carbonyl]cyclopropanecarbonitrile], for which the values for the EC50 in experiment [1] and in experiment [2] were 470 nM and 120 nM, respectively.

For the compound `Cc1cc(CC(=O)N2CCC3(CC2)CC(C2c4ccccc4-c4cncn42)C3O)on1` (centres unmarked) [compound 63, 1-[3-hydroxy-2-(5H-imidazo[1,5-b]isoindol-5-yl)-7-azaspiro[3.5]nonan-7-yl]-2-(3-methylisoxazol-5-yl)ethanone], the values for the EC50 in experiment [1] and in experiment [2] were 310 nM and 160 nM, respectively.
